Holding throughout (assay type): functional
The test system of test [1] is Pseudomonas aeruginosa. As to the kind of experiment: Antibacterial activity against Pseudomonas aeruginosa ATCC 27853 assessed as bacterial growth inhibition measured after 18 hrs by CLSI protocol based two-fold serial microdilution method.
Test [2] has as its system Staphylococcus aureus. As to the kind of experiment: Antibiofilm activity against Staphylococcus aureus ATCC 25923 assessed as inhibition of biofilm formation incubated for 24 hrs by crystal violet staining based analysis.
Test [3] concerns Enterococcus faecium. As to the kind of experiment: Antibacterial activity against Enterococcus faecium assessed as reduction in bacterial growth.
For test [4], the system named is Neisseria gonorrhoeae. As to the kind of experiment: Antibacterial activity against Neisseria gonorrhoeae.
For test [5], the system named is Enterococcus faecalis. Description: Antimicrobial activity against Enterococcus faecalis ATCC 29212 assessed as reduction in microbial growth incubated for 16 to 20 hrs by CLSI-protocol based Mueller-Hinton broth assay. The conditions noted are these: time 16-20 hrs.
The test system of test [6] is Pseudomonas aeruginosa. As to the kind of experiment: Antibacterial activity against Pseudomonas aeruginosa ATCC 27853 assessed as reduction in bacterial growth by broth microdilution method. Background: Dilution methods test growth across graded concentrations, often in twofold steps.
Test [7] deals with Klebsiella pneumoniae. Description: Antibacterial activity against Klebsiella pneumoniae ATCC 700603 assessed as reduction in bacterial growth by microbroth dilution assay.
Test [8] relates to Helicobacter pylori. Description: Antibacterial activity against Helicobacter pylori assessed as inhibition of bacterial growth by broth micro-dilution assay.
For test [9], the system named is Staphylococcus aureus. Description: Antibacterial activity against vancomycin-resistant Staphylococcus aureus VRS 1 assessed as reduction in bacterial growth.
The subject of test [10] is Staphylococcus aureus. As to the kind of experiment: Antimicrobial activity against methicillin-resistant Staphylococcus aureus ATCC 29213 assessed as reduction in microbial growth by CLSI brith micro-dilution method.
The test system of test [11] is Neisseria gonorrhoeae. Description: Antibacterial activity against Neisseria gonorrhoeae ATCC 49226 assessed as reduction in bacterial growth incubated for 20 to 24 hrs by CLSI-based protocol based two-fold serial microdilution method. As to conditions: time 20-24 hrs.
In test [12] the test system is Klebsiella pneumoniae. Description: Antibacterial activity against Klebsiella pneumoniae ATCC 10031 assessed as reduction in microbial growth after 24 hrs by two-fold serial dilution method.
The subject of test [13] is Staphylococcus aureus. Description: Antibacterial activity against Staphylococcus aureus ATCC 25923 assessed as reduction in microbial growth after 24 hrs by two-fold serial dilution method.
In test [14] the test system is Staphylococcus aureus. Description: Antimicrobial activity against […] Staphylococcus aureus ATCC 25923 assessed as reduction in microbial growth by CLSI protocol based analysis.
Test [15] relates to Staphylococcus aureus. As to the kind of experiment: Antimicrobial activity against methicillin-sensitive Staphylococcus aureus ATCC 29213 assessed as reduction in bacterial growth by CLSI protocol based analysis.
Test [16] deals with Neisseria gonorrhoeae. As to the kind of experiment: Antibacterial activity against resistant Neisseria gonorrhoeae assessed inhibition of bacterial growth.
Test [17] concerns Staphylococcus aureus. Description: Antibacterial activity against methicillin-resistant Staphylococcus aureus ATCC 43300 assessed as reduction in bacterial growth by CLSI protocol based broth micro-dilution method.
The subject of test [18] is Acinetobacter baumannii. Description: Antibacterial activity against Acinetobacter baumannii BAA-1605 assessed as reduction in bacterial growth.
In test [19] the test system is Enterococcus faecalis. Description: Antibacterial activity against […] Enterococcus faecalis ATCC 29212 assessed as reduction in bacterial growth by CLSI protocol based two-fold serial broth microdilution method.
Test [20] deals with Staphylococcus aureus. As to the kind of experiment: Antibacterial activity against methicillin-resistant Staphylococcus aureus ATCC 43300 assessed as reduction in bacterial growth by CLSI protocol based two-fold serial broth microdilution method.
Test [21] relates to Enterococcus faecium. As to the kind of experiment: Antibacterial activity against vancomycin-resistant Enterococcus faecium assessed as reduction in bacterial growth CLSI-based double dilution method.
The subject of test [22] is Helicobacter pylori. As to the kind of experiment: Antibacterial activity against Helicobacter pylori ATCC 700392 assessed as reduction in bacterial growth incubated for 24 hrs by broth micro-dilution method.
In test [23] the test system is Staphylococcus aureus. As to the kind of experiment: Antibacterial activity against Staphylococcus aureus RN4220 assessed as inhibition of microbial growth.
The subject of test [24] is Helicobacter pylori. As to the kind of experiment: Antibacterial activity against Helicobacter pylori ATCC 43504 assessed as reduction in bacterial growth incubated for 24 hrs by broth micro-dilution method.
Test [25] has as its system Pseudomonas aeruginosa. As to the kind of experiment: Antibacterial activity against Pseudomonas aeruginosa PAO1 assessed as bacterial growth inhibition measured after 18 hrs by CLSI protocol based two-fold serial microdilution method.
Test [26] concerns Staphylococcus aureus. As to the kind of experiment: Antimicrobial activity against Staphylococcus aureus ATCC 25923 assessed as reduction in microbial growth after 24 hrs by CLSI based broth microdilution method.
The subject of test [27] is Pseudomonas aeruginosa. Description: Antibacterial activity against Pseudomonas aeruginosa assessed as inhibition of bacterial growth incubated for 24 hrs by broth microdilution method.
In test [28] the test system is Enterococcus faecium. Description: Antibacterial activity against Enterococcus faecium.

By MIC is commonly meant the least concentration at which growth counts as inhibited. As a reminder, the MIC50 is the lowest concentration that inhibits either 50% of growth or 50% of the strains tested, depending on the study. Lower therefore signals greater potency. A word on the MIC90: it is the lowest concentration that inhibits either 90% of growth or 90% of the strains tested, depending on the study.

In brackets after ≈: the same amount, converted by molar mass.

In the case of `CN[C@@H]1[C@@H](O[C@H]2O[C@H](CO)[C@@H](N)[C@H](O)[C@H]2O)O[C@H]2C[C@@H](N)[C@@H](O[C@H]3[C@H](O)[C@@H](O)[C@H](N)C[C@@H]3N)O[C@@H]2[C@@H]1O`, in test [1], the MIC came to 32 µg/mL (≈ 59.3 µM).
Regarding `O=C(Nc1ccc(C(F)(F)F)cc1)Nc1ccc(C(F)(F)F)cc1`, the MBEC in test [2] is 0.78 µmol/L. For the same compound, in test [3], the minimum inhibitory concentration (MIC) stood at 1.6 µM (≈ 0.557 µg/mL).
Consider `CN(C)Cc1ccc2c(Cl)cc(Cl)c(O)c2n1`, for which, in test [4], the MIC came to 0.31 µg/mL (≈ 1.14 µM).
Consider `CC(C)Oc1ccc(/C=N/NC(=N)N/N=C/c2ccc(OC(C)C)cc2)cc1`, for which, in test [5], the MIC was found to be 1 µg/mL.
Consider `CC/C(=C(\c1ccc(O)cc1)c1ccc(OCCN(C)C)cc1)c1ccccc1` [AFIMOXIFENE], for which the MIC in test [6] turned out to be 16 µg/mL (≈ 41.3 µM).
Turning to `Nc1c2ccccc2nc2ccccc12` [AMINACRINE], the minimal inhibitory concentration (MIC) in test [7] was 8 µg/mL (≈ 41.2 µM).
As to `O=C(O)C(=O)CBr` [BROMOPYRUVATE], the minimal inhibitory concentration (MIC) in test [8] turned out to be 32 µg/mL (≈ 192 µM).
`Cc1ccc(-c2cc(C(F)(F)F)nn2-c2ccc(S(N)(=O)=O)cc2)cc1` [CELECOXIB]: the minimal inhibitory concentration (MIC) in [9] came to 128 µg/mL (≈ 336 µM); in [10], 32 µg/mL.
With `Oc1c(Cl)cc(Cl)c2cccnc12` [CHLOROXINE], the MIC in test [11] worked out at 0.28 µM (≈ 0.0599 µg/mL).
On to `Cc1cc(C2CCCCC2)n(O)c(=O)c1` [CICLOPIROX], for which, in test [12], the minimum inhibitory concentration (MIC) is 5 µg/mL.
Take `Oc1c(I)cc(Cl)c2cccnc12` [CLIOQUINOL]: the MIC in [11] came out at 0.28 µM (≈ 0.0855 µg/mL).
As to `COc1cc(/C=C/C(=O)CC(=O)/C=C/c2ccc(O)c(OC)c2)ccc1O` [CURCUMIN], the MIC in test [13] worked out at 100 µg/mL.
`CC1=NN(c2ccc(C)c(C)c2)C(=O)/C1=N\Nc1cccc(-c2cccc(C(=O)O)c2)c1O` [ELTROMBOPAG]: the MIC in test [14] was found to be 2 µg/mL; in [15], 2 µg/mL (≈ 4.52 µM).
In turn, `O=C(O)c1ccccc1Nc1cccc(C(F)(F)F)c1` [FLUFENAMIC ACID] yielded an MIC50 in [16] of 4 µg/mL (≈ 14.2 µM).
Take `CC[C@H](c1ccc(O)cc1)[C@@H](CC)c1ccc(O)cc1` [HEXESTROL]: the MIC in test [17] was 16 µg/mL (≈ 59.2 µM).
`Oc1c(I)cc(I)c2cccnc12` [IODOQUINOL]: the MIC in [11] came out at 0.1 µM (≈ 0.0397 µg/mL).
With `CO[C@@]12[C@H](COC(N)=O)C3=C(C(=O)C(C)=C(N)C3=O)N1C[C@@H]1N[C@@H]12` [MITOMYCIN], in test [18], the MIC was 20 µg/mL (≈ 59.8 µM).
Turning to `CC/C(=C(\c1ccccc1)c1ccc(OCCNC)cc1)c1ccccc1` [N-DESMETHYLTAMOXIFEN], the MIC in test [6] is 16 µg/mL (≈ 44.8 µM).
Turning to `O=C(Nc1ccc([N+](=O)[O-])cc1Cl)c1cc(Cl)ccc1O` [NICLOSAMIDE], the MIC in [19] worked out at 0.125 µg/mL (≈ 0.382 µM); in test [20] it was 0.06 µg/mL (≈ 0.183 µM); in test [21], 1 µg/mL (≈ 3.06 µM).
As to `COCCOC(=O)C1=C(C)NC(C)=C(C(=O)OC(C)C)C1c1cccc([N+](=O)[O-])c1` (stereo not given) [NIMODIPINE], the minimal inhibitory concentration (MIC) in test [22] was determined as 4 µg/mL (≈ 9.56 µM).
Still for that read-out and setting: next, `CCOC(=O)C1=C(C)NC(C)=C(C(=O)OC)C1c1cccc([N+](=O)[O-])c1` (stereo not given) [NITRENDIPINE]: 4 µg/mL (≈ 11.1 µM).
Consider `O=C(Nc1cc(Cl)cc(Cl)c1O)c1c(O)c(Cl)cc(Cl)c1Cl` [OXYCLOZANIDE], for which, in test [23], the MIC turned out to be 0.125 µg/mL.
For `Oc1cccc2cccnc12` [OXYQUINOLINE], the MIC in test [11] was found to be 0.08 µM (≈ 0.0116 µg/mL).
Take `NC(=O)c1ccccc1O` [SALICYLAMIDE]: in [16], the lowest concentration to inhibit growth (MIC) was 8 µg/mL (≈ 58.3 µM).
As for `CN[C@H]1CC[C@@H](c2ccc(Cl)c(Cl)c2)c2ccccc21` [SERTRALINE], the MIC in [24] was 32 µg/mL (≈ 104 µM).
Regarding `N[C@@H](CC(=O)N1CCn2c(nnc2C(F)(F)F)C1)Cc1cc(F)c(F)cc1F` [SITAGLIPTIN], the minimal inhibitory concentration (MIC) in test [25] came out at 16 µg/mL (≈ 39.3 µM).
On to `CN(C)C(=S)SSC(=S)N(C)C` [THIRAM], for which, in test [26], the MIC90 was 4 µg/mL.
For `NC[C@H]1O[C@H](O[C@H]2[C@H](O)[C@@H](O[C@H]3O[C@H](CO)[C@@H](O)[C@H](N)[C@H]3O)[C@H](N)C[C@@H]2N)[C@H](N)C[C@@H]1O` [TOBRAMYCIN], in [27], the MIC90 turned out to be 2.2 µg/mL (≈ 4.71 µM).
Compound `Cc1c(Cl)cccc1Nc1ccccc1C(=O)O` [TOLFENAMIC ACID] registered an MIC50 in test [16] of 4 µg/mL (≈ 15.3 µM).
In test [28], `CN[C@H](CC(C)C)C(=O)N[C@H]1C(=O)N[C@@H](CC(N)=O)C(=O)N[C@H]2C(=O)N[C@H]3C(=O)N[C@H](C(=O)N[C@H](C(=O)O)c4cc(O)cc(O)c4-c4cc3ccc4O)[C@H](O)c3ccc(c(Cl)c3)Oc3cc2cc(c3O[C@@H]2O[C@H](CO)[C@@H](O)[C@H](O)[C@H]2O[C@H]2C[C@](C)(N)[C@H](O)[C@H](C)O2)Oc2ccc(cc2Cl)[C@H]1O` [VANCOMYCIN] displayed an MIC of 8 µg/mL (≈ 5.52 µM).

(Values after ChEMBL document CHEMBL6071161, “Drug repurposing against antibiotic resistant bacterial pathogens” (2024).)
